The source of these data is patent EP1029854A1, “Oxazolidinones and their use as antibacterial agents” (BAYER AG, priority 1999, dated 2000).

This assay concerns S.aureus 133. Put plainly: MIC (MHK) determination by microdilution method in BH medium. It counts as cell-based. The settings on record: for Wirksameres Diastereomer: qualitative comparison with Diastereomer 2 of the same example, test not named in the heading, presumably the MIC test; for MIC: Staphylococcus aureus, S.aureus 133, microdilution in BH-Medium, 37°C, read after ca. 20 hours or 3 to 5 days, lowest concentration with no visible growth, samples Diastereomer 1 /Diastereomer 2 = 100:1, read-out: MHK-Werte. As for the experimental part: Die MHK-Werte wurden mit Hilfe der Mikrodilutionsmethode in BH-Medium bestimmt. Jede Prüfsubstanz wurde in DMSO gelöst. In der Mikrotiterplatte wurde durch serielle Verdünnung eine Konzentrationsreihe der Prüfsubstanzen angelegt. Zur Inokulation wurden Übernachtkulturen der Erreger verwandt, die zuvor im Nährmedium 1:250 verdünnt wurden. Zu 100 µl der verdünnten, wirkstoffhaltigen Nährlösungen wurden je 100 µl Inokulationslösung gegeben.
Die Mikrotiterplatten wurden bei 37°C bebrütet und nach ca. 20 Stunden oder nach 3 bis 5 Tagen abgelesen. Der MHK-Wert (µg/ml) gibt die niedrigste Wirkstoffkonzentration an, bei der kein Wachstum zu erkennen war.

Converted amounts (≈) assume the structure as drawn.

With `C=CC(O)[C@H]1CN(c2ccc3c(c2)OCc2nccn2-3)C(=O)O1` (single isomer, unassigned) [Beispiel 1 Diastereomer 1], the “Wirksameres Diastereomer” value is on record as “Wirksameres Diastereomer”.
On to `C=CC(O)[C@H]1CN(c2ccc3c(c2)OCc2nccn2-3)C(=O)O1` (single isomer, unassigned) [Beispiel 1], for which the MIC amounted to 1.5 µg/mL (≈ 4.79 µM).
With `C#CC(O)[C@H]1CN(c2ccc3c(c2)OCc2nccn2-3)C(=O)O1` (single isomer, unassigned) [Beispiel 2 Diastereomer 1], the “Wirksameres Diastereomer” value was “Wirksameres Diastereomer”.
Consider `C#CC(O)[C@H]1CN(c2ccc3c(c2)OCc2nccn2-3)C(=O)O1` (single isomer, unassigned) [Beispiel 2], for which the MIC stood at 1 µg/mL (≈ 3.21 µM).
